Source: the NIST ThermoML archive (doi:10.1021/je300843n)
± gives the expanded uncertainty stated by the source.

Details: Liquid, Ebulliometric method (Recirculating still)

C [methane]
Details	vapor or sublimation pressure [kPa]
126.01 K	286.85 ± 1.7
127.99 K	324.94 ± 1.8
130.02 K	367.76 ± 1.9
132.01 K	413.65 ± 2
133.98 K	463.11 ± 2.1
135.99 K	517.9 ± 2.3
137.97 K	576.38 ± 2.5
140.01 K	641.51 ± 2.6
